Reference: paper PMC7892445 (Frontiers in Molecular Neuroscience, 2021)
Read-outs that look alike come from different tables or passages of the source.

Columns and labels:
[1] = target: Chicken α10 homomeric nAChR (Gallus gallus, UniProt Q9I8C7); assay: Two-electrode voltage clamp, recombinant homomeric receptor in X. laevis oocytes; assay type: cell-based; conditions: for EC50: mean ± SEM
Protocol: (§1) For expression studies, rat and chicken α9 and α10 nAChR subunits subcloned into a modified pGEMHE vector were used. Capped cRNAs were in vitro transcribed from linearized plasmid DNA templates using RiboMAX™ Large Scale RNA Production System (Promega, Madison, WI, USA). The maintenance of X. laevis and the preparation and cRNA injection of stage V and VI oocytes have been described in detail elsewhere (Verbitsky et al., [2000]). Typically, oocytes were injected with 50 nl of RNase-free water containing 0.01–1.0 ng of cRNA (at a 1:1 molar ratio for heteromeric receptors) and maintained in Barth’s solution [in mM: NaCl 88, Ca(NO3)2 0.33, CaCl2 0.41, KCl 1, MgSO4 0.82, NaHCO3 2.4, HEPES 10] at 18°C. Electrophysiological recordings were performed 2–6 days after cRNA injection under a two-electrode voltage clamp with an Oocyte Clamp OC-725B or C amplifier (Warner Instruments Corporation, Hamden, CT, USA). Recordings were filtered at a corner frequency of 10 Hz using a 900 BT Tunable Active Filter (Frequency Devices Inc., Ottawa, IL, USA). Data acquisition was performed using a Patch Panel PP-50 LAB/1 interphase (Warner Instruments Corp., Hamden, CT, USA) at a rate of 10 points per second. Both voltage and current electrodes were filled with 3 M KCl and had resistances of ~1 MΩ. Data were analyzed using Clampfit from the pClamp 6.1 software. During electrophysiological recordings, oocytes were continuously superfused (~15 ml/min) with normal frog saline composed of: 115 mM NaCl, 2.5 mM KCl, 1.8 mM CaCl2, and 10 mM HEPES buffer, pH 7.2. Drugs were added to the perfusion solution for the application. The membrane potential was clamped to −70 mV. To minimize activation of the endogenous Ca^2+ sensitive chloride current (Elgoyhen et al., [2001]), all experiments were performed in oocytes incubated with the Ca^2+ chelator 1,2-bis (2-aminophenoxy) ethane-N,N,N’,N’-tetraacetic acid-acetoxymethyl ester (BAPTA-AM, 100 μM) for 3 h before electrophysiological recordings. […] The mean and SEM of peak current responses are presented. Agonist concentration-response curves were iteratively fitted, using Prism 6 software (GraphPad Software Inc., La Jolla, CA, USA), with the equation: I/Imax = A^nh/(A^nH + EC50^nH), where I is the peak inward current evoked by agonist at concentration A; Imax is the current evoked by the concentration of agonist eliciting a maximal response; EC50 is the concentration of agonist inducing half-maximal current response, and nH is the Hill coefficient. An equation of the same form was used to analyze the concentration dependence of antagonist induced blockage.

[2] = target: Chicken α9 homomeric nAChR (Gallus gallus, UniProt Q9PTS8); assay: as above; assay type: cell-based; conditions: for EC50: mean ± SEM
Protocol: as §1

[3] = target: T1, Rat α9 homomeric nAChR (Rattus norvegicus, UniProt P43144); assay: as above; assay type: cell-based
T1 construct: expressed in transfected cells; host or cells: Xenopus laevis oocytes (cRNA injection)
Protocol: as §1

[4] = target: T2, Chicken α9α10 nAChR (Gallus gallus, UniProt Q9I8C7+Q9PTS8); assay: Two-electrode voltage clamp, recombinant heteromeric receptor in X. laevis oocytes; assay type: cell-based; conditions: for Emax: read-out: Efficacy (maximal response as % of that elicited by 1 mM ACh), Chicken α9α10
T2 construct: expressed in transfected cells; host or cells: Xenopus laevis oocytes (cRNA injection, 1:1 molar ratio)
Protocol: as §1

[5] = target: rat α9–chicken α10 hybrid receptor (Rα9-Cα10) (UniProt P43144+Q9I8C7); assay: Two-electrode voltage clamp, hybrid receptor in X. laevis oocytes; assay type: cell-based; conditions: mean ± SEM
Protocol: as §1

[6] = target: T3, rat α9α10x chimeric receptor (Rattus norvegicus, UniProt P43144+Q9JLB5, A264D/A292P/A308T/A312F/A328P/E329N/F253L/F325Y/H335A/I246L/I275V/I289S/I304M/I310V/I323L/L250F/L309M/M279L/M319L/N295S/R331H/S258A/S293A/V320I/Y260H); assay: Two-electrode voltage clamp, chimeric receptor in X. laevis oocytes; assay type: cell-based
T3 construct: expressed in transfected cells; host or cells: Xenopus laevis oocytes (cRNA injection)
Protocol: as §1
The α10W55T mutant subunit was produced as previously described (Boffi et al., [2017]) using Quick change XL II kit (Stratagene, La Jolla, CA, USA). […]

[7] = target: T2, Chicken α9α10 nAChR; parameters: method as in Elgoyhen et al., 2001; Lipovsek et al., 2012; conditions: previous work, ref Elgoyhen et al., 2001, Lipovsek et al., 2012; cited from earlier work
[8] = target: T4, Rat α9α10 nAChR (Rattus norvegicus, UniProt P43144+Q9JLB5); assay: Two-electrode voltage clamp, recombinant heteromeric receptor in X. laevis oocytes; assay type: cell-based; conditions: for Efficacy (maximal response as % of that elicited by 1 mM ACh) / EC50: Rat α9α10; for Efficacy (maximal response as % of that elicited by 1 mM ACh) / EC50 / Emax: mean ± SEM; for EC50: −70 mV, BAPTA-AM treated oocytes; for Emax: read-out: Efficacy (maximal response as % of that elicited by 1 mM ACh), Rat α9α10
T4 construct: expressed in transfected cells; host or cells: Xenopus laevis oocytes (cRNA injection, 1:1 molar ratio)
Protocol: as §1

[9] = target: chicken α9–rat α10 hybrid receptor (Cα9-Rα10) (UniProt Q9JLB5+Q9PTS8); assay: Two-electrode voltage clamp, hybrid receptor in X. laevis oocytes; assay type: cell-based; conditions: mean ± SEM
Protocol: as §1

[10] = target: rat α9α10W55T receptor (Rα9-Rα10W55T) (Rattus norvegicus, UniProt P43144+Q9JLB5, W81T); assay: Two-electrode voltage clamp, mutant receptor in X. laevis oocytes; assay type: cell-based; conditions: mean ± SEM
Protocol: For expression studies, rat and chicken α9 and α10 nAChR subunits subcloned into a modified pGEMHE vector were used. Capped cRNAs were in vitro transcribed from linearized plasmid DNA templates using RiboMAX™ Large Scale RNA Production System (Promega, Madison, WI, USA). The maintenance of X. laevis and the preparation and cRNA injection of stage V and VI oocytes have been described in detail elsewhere (Verbitsky et al., [2000]). Typically, oocytes were injected with 50 nl of RNase-free water containing 0.01–1.0 ng of cRNA (at a 1:1 molar ratio for heteromeric receptors) and maintained in Barth’s solution [in mM: NaCl 88, Ca(NO3)2 0.33, CaCl2 0.41, KCl 1, MgSO4 0.82, NaHCO3 2.4, HEPES 10] at 18°C. Electrophysiological recordings were performed 2–6 days after cRNA injection under a two-electrode voltage clamp with an Oocyte Clamp OC-725B or C amplifier (Warner Instruments Corporation, Hamden, CT, USA). Recordings were filtered at a corner frequency of 10 Hz using a 900 BT Tunable Active Filter (Frequency Devices Inc., Ottawa, IL, USA). Data acquisition was performed using a Patch Panel PP-50 LAB/1 interphase (Warner Instruments Corp., Hamden, CT, USA) at a rate of 10 points per second. Both voltage and current electrodes were filled with 3 M KCl and had resistances of ~1 MΩ. Data were analyzed using Clampfit from the pClamp 6.1 software. […]

[11] = system: chicken short hair cells; assay: tissue or blood; conditions: Gallus gallus, read-out: Efficacy (maximum response normalized to maximal peak response to 3 mM ACh)
Protocol: (§2) Chicken auditory organ (basilar papilla) was dissected from the temporal bone of embryonic chickens (white Leghorns either sex, 17–20 days in ovo). The tegmentum vasculosum was removed and the tectorial membrane was stripped from the basilar papilla with most of the short hair cells (SHCs) still attached. This “tectorial preparation” was then inverted and secured in the recording chamber by spring clips. SHCs were recorded in a region 25–50% the distance from the apical (lagenar) to the basal tip of the basilar papilla of the chicken. Apical turns of the organ of Corti were excised from BALB/c mice of either sex between postnatal day 11 (P11) and P13 (around the onset of hearing in altricial rodents). At this age, outer hair cells (OHCs) are already innervated by the MOC fibers (Pujol et al., [1998]; Simmons, [2002]). The tectorial membrane was removed and the organ of Corti was positioned under an insect pin affixed to a cover-slip with a drop of Sylgard.
(§3) Basilar papilla and cochlear preparations were placed into a chamber on the stage of an upright microscope (Olympus BX51WI, Center Valley, PA, USA) at room temperature and used within 2 h. Cells were visualized on a monitor via a water immersion objective (60× magnification), differential interference contrast optics, and a CCD camera (Andor iXon 885, Belfast, UK). […]

[12] = system: mouse outer hair cells; assay: tissue or blood; conditions: read-out: Efficacy (maximum response normalized to maximal peak response to 3 mM ACh)
Protocol: as §2, §3

[13] = Chicken α9α10, mean ± SEM, read-out: EC50
[14] = α9α10x chimeric receptor, mean ± SEM

Chain of Chicken α9 homomeric nAChR (Q9PTS8 28-484): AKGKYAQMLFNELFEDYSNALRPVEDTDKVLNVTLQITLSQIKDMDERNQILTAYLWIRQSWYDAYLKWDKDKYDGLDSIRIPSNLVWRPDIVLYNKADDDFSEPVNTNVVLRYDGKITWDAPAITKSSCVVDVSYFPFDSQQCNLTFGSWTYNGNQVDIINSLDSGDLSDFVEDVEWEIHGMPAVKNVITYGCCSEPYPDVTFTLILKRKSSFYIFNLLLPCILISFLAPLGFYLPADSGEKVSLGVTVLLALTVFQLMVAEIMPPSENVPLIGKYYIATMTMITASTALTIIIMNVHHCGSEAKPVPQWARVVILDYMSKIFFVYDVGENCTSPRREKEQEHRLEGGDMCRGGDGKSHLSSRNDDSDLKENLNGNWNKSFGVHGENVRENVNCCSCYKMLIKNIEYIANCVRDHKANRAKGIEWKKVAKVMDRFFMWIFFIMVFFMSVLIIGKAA
T2 sequence (Q9PTS8 28-484): as above
T2 sequence (Q9I8C7 27-452): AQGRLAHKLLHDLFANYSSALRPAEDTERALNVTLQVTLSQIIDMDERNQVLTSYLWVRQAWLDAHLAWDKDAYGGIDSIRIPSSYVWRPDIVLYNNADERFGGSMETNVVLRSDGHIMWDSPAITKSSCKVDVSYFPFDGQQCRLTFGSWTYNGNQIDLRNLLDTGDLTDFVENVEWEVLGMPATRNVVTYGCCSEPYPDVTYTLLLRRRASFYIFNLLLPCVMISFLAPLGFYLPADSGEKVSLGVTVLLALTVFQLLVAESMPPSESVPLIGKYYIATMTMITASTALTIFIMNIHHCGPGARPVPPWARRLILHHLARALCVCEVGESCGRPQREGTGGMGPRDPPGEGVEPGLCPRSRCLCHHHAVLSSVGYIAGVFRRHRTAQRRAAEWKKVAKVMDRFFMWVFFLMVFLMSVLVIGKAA
Chain of chicken α9–rat α10 hybrid receptor (Cα9-Rα10) (Q9PTS8 28-484): as the sequence (Q9PTS8 28-484) above
Chain of chicken α9–rat α10 hybrid receptor (Cα9-Rα10) (Q9JLB5 25-447): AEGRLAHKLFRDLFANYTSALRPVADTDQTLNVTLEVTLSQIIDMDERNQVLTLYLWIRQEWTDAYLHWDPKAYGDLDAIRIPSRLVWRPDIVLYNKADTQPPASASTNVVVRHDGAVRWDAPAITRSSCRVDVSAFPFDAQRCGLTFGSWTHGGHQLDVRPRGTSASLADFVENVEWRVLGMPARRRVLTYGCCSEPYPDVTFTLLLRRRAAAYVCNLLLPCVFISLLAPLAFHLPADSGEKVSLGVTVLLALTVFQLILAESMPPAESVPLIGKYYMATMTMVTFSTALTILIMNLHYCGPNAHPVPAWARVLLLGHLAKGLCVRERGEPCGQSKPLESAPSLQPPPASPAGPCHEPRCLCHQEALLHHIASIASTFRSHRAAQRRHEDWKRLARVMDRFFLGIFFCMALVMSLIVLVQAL
Chain of rat α9–chicken α10 hybrid receptor (Rα9-Cα10) (P43144 26-479): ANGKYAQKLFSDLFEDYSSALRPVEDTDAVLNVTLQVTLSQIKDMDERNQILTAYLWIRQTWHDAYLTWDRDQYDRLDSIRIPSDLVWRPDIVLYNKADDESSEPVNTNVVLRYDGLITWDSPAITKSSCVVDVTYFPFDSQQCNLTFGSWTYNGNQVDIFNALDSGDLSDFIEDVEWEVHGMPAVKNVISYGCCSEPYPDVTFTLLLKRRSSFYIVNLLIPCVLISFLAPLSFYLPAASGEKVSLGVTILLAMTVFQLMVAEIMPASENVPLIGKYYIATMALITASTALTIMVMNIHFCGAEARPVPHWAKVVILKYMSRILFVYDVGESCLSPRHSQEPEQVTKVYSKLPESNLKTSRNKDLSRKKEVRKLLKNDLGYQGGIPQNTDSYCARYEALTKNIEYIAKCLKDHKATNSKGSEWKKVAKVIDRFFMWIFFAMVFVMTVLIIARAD
Chain of rat α9–chicken α10 hybrid receptor (Rα9-Cα10) (Q9I8C7 27-452): as the sequence (Q9I8C7 27-452) above
T4 sequence (P43144 26-479): as the sequence (P43144 26-479) above
T4 sequence (Q9JLB5 25-447): as the sequence (Q9JLB5 25-447) above
T1 sequence (P43144 26-479): as the sequence (P43144 26-479) above
T3 sequence (P43144 26-479, stated change not applied): as the sequence (P43144 26-479) above
T3 sequence (P43144+Q9JLB5 fused with the stated changes): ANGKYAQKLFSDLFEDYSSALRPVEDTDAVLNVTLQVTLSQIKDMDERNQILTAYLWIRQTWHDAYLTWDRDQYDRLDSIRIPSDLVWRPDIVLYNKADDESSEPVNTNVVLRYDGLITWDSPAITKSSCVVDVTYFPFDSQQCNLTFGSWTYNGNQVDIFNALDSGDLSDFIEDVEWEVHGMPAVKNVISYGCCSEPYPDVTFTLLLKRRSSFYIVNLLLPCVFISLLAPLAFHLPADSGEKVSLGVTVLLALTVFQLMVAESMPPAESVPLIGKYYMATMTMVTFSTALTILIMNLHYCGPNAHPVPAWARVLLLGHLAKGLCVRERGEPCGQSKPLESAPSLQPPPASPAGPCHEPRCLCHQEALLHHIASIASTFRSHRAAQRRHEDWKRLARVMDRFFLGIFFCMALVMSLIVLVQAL
Chain of Chicken α10 homomeric nAChR (Q9I8C7 27-452): as the sequence (Q9I8C7 27-452) above
Chain of rat α9α10W55T receptor (Rα9-Rα10W55T) (P43144 26-479): as the sequence (P43144 26-479) above
Chain of rat α9α10W55T receptor (Rα9-Rα10W55T) (Q9JLB5 25-447 W81T): as the sequence (Q9JLB5 25-447) above, with W57T counted along it

With `CC(=O)OCC[N+](C)(C)C` [ACh, acetylcholine] as the molecule, how does the EC50 [1] read?
The EC50 was 2.2 ± 0.7 µM.

And the EC50 [2]?
The EC50 was 12.9 ± 1.4 µM.

What about the “Imax (maximal ACh response)” value ([3]; homomeric rat α9) of the same molecule?
The value was 14 ± 2 nA.

What about the EC50 [4] of the same molecule?
Its EC50 is 13.1 ± 2.6 µM.

And the EC50 ([5]; Rα9-Cα10 hybrid)?
The EC50 was 11.6 ± 2.9 µM.

What about the “Imax (maximal ACh response)” value ([6]; rat α9 co-expressed with α10x) of the same molecule?
The value was 269 ± 103 nA.

And the EC50 [7]?
Its EC50 is about 10 µM.

Which results are given for `C[N+](C)(C)CCOC(N)=O` [Carbachol, carbachol]?
Efficacy (maximal response as % of that elicited by 1 mM ACh) ([4]; Chicken α9α10, mean ± SEM): 89.8 ± 7.0 (6) %; EC50 [4, 13]: 150 ± 15 µM; Potency relative to ACh (times lower) ([4]; chicken α9α10, carbachol EC50 vs ACh): ~12 times; Emax ([4]; mean ± SEM): 89 ± 7%; Efficacy (maximal response as % of that elicited by 1 mM ACh) [8]: 75.5 ± 5.2 (5) %; EC50 [8]: 159 ± 31.5 µM; Potency relative to ACh (times lower) ([8]; rat α9α10, carbachol EC50 vs ACh): ~12 times; Emax [8]: 75 ± 5%

What does the source list for `C[N+](C)(C)CCO` [Choline, choline]?
EC50 [1]: 23.2 ± 8.3 µM; Emax ([1]; read-out: Efficacy (maximal response as % of maximal ACh response), mean ± SEM): 99.4 ± 9.5%; EC50 [2]: 280 ± 20 µM; Emax ([2]; read-out: Efficacy (maximal response as % of that elicited by 1 mM ACh), mean ± SEM): 73.7 ± 5.9%; Efficacy (maximal response as % of that elicited by 1 mM ACh) ([3]; Rat α9, mean ± SEM): 87.3 ± 6.0 (4) %; EC50 ([3]; Rat α9, −70 mV, BAPTA-AM treated oocytes, mean ± SEM): 188 ± 40 µM; Emax ([3]; read-out: Efficacy (maximal response as % of that elicited by 1 mM ACh), Rat α9, mean ± SEM): 87 ± 6%; EC50 [4, 13]: 200 ± 16 µM; Emax ([4]; mean ± SEM): 88 ± 6.7%; Efficacy (maximal response as % of that elicited by 1 mM ACh) [8]: 37.5 ± 2.5 (9) %; Efficacy (maximal response as % of that elicited by 1 mM ACh) ([8]; listed as choline): 38 ± 3%; EC50 [8]: 541 ± 62 µM; Emax [8]: 37 ± 3%; EC50 ([9]; Cα9-Rα10 hybrid): 333 ± 66.2 µM; Efficacy (maximal response as % of maximal ACh response) ([9]; Cα9-Rα10 hybrid): 51.2 ± 6 (5) %; Emax ([9]; read-out: Efficacy (maximal response as % of maximal ACh response), Cα9-Rα10 hybrid): 51 ± 6%; EC50 ([5]; Rα9-Cα10 hybrid): 148 ± 12.1 µM; Efficacy (maximal response as % of responses to 1 mM ACh) ([5]; Rα9-Cα10 hybrid): 86.4 ± 2.1 (6) %; Emax ([5]; read-out: Efficacy (maximal response as % of responses to 1 mM ACh), Rα9-Cα10 hybrid): 86 ± 2%; Emax ([6]; read-out: Efficacy (maximal response as % of maximal ACh response), α9α10x chimeric receptor, mean ± SEM): 74 ± 1%; EC50 [6, 14]: 160 ± 7.6 µM; Efficacy (maximal response as % of maximal ACh response) [6, 14]: 74.3 ± 1.0 (5) %; Efficacy (responses to 10 mM choline as % of those elicited by 1 mM ACh) [10]: 7.4 ± 1.9 (5) %; Efficacy (responses to 10 mM choline as % of those elicited by 1 mM ACh) ([10]; listed as choline): 7 ± 2%; Emax [11]: 90 ± 6%; Emax [12]: 50 ± 9%

Which results are given for `C[N+]1(C)CCN(c2ccccc2)CC1` [DMPP]?
Efficacy (maximal response as % of that elicited by 1 mM ACh) ([4]; Chicken α9α10, mean ± SEM): 32.6 ± 2.9 (5) %; EC50 [4, 13]: 9.8 ± 0.5 µM; Efficacy (maximal response as % of that elicited by 1 mM ACh) [8]: 0.6 ± 0.3 (6) %; EC50 [8]: 21.5 ± 4 µM

Which IC50 [4] does the source give for `CN1CCC[C@H]1c1cccnc1` [Nicotine, nicotine] here?
Its IC50 is 39.4 ± 3.4 µM.

What about the “Agonist activity (currents elicited)” value ([4]; oocytes expressing chicken α9α10) of the same molecule?
The value was “did not elicit currents”.

What about the “Agonist activity (currents elicited)” value ([8]; oocytes expressing rat α9α10) of the same molecule?
Its value is “did not elicit currents”.
